Four molecules from PubChem BioAssay AID1918930 (Molecular Pharmacology Branch, DTP, NCI, 2023) can be followed below.

pIC50: −log10 of the molar value. Values joined by “and” are separate entries in the source; they are usually repeats but may differ in a detail not shown here. Equal entries are not always repeated.

The test system of the assay is 233499-124-R-J3-PDC complex spheroid viability, % test/control. The assay can be described thus: Anticancer human tumor 233499-124-R-J3-PDC patient-derived colon adenocarcinoma cell line growth inhibition. Particulars: for viability, T/C: stronger effect = lower value. An excerpt: Multicellular complex tumor spheroid response to LSD1 Inhibitor Iadademstat in combination with a variety of drugs and investigational agents in selected tumor cell lines
The current study was undertaken to assess response to LSD1 inhibitors in combination with standard-of-care drugs and investigational agents in solid tumor complex spheroid models as well as in the K-562 leukemia. Complex spheroids include a stromal component modeled by human endothelial cells (HUVEC) and fibroblasts modeled by human mesenchymal stem cells (MSCs). The concentration ranges selected for each drug and investigational agent were based upon clinically achievable concentrations if the clinical Cmax of the agent was known.
Compounds. The drugs and investigational agents used in this study are listed on Table 1. All of the agents used, including staurosporine (NSC755774) and gemcitabine (NSC613327), were obtained from the Developmental Therapeutics Program, NCI. FDA-approved anticancer drugs are available from the NCI at http://dtp.nci.nih.gov/branches/dscb/oncology_drugset_explanation.html. Drugs and investigational agents were >95% pure by proton nuclear magnetic resonance (NMR) and liquid chromatography/mass spectrometry (LC/MS). Stock solutions were prepared at 400x in DMSO, stored at -70 degrees C, and diluted in fresh medium prior to their use. The final concentration of DMSO in cell culture wells never exceeded 0.25% (v/v). The FDA-approved anticancer drug set is available from the Developmental Therapeutics Program at https://dtp.cancer.gov/organization/dscb/obtaining/available_plates.htm. All drugs and investigational agents were tested over a range starting from a high concentration at or near the clinical Cmax and decreasing in half-log increments. If the clinical Cmax for an agent had not been determined, the highest concentration tested was 10 microM.
Cell Lines. The patient-derived cancer cell (PDC) lines: 292921-168-R-J2-PDC, K24384-001-R-PDC, and 521955-158-R2-J5-PDC pancreatic carcinomas, 556581-035-R-J1 ovarian carcinoma, 324938-238-R-J1-PDC, 855422-203-R-J1-PDC and 883617-216-R-J1-PDC urothelial bladder carcinomas, 743489-274-T-PDC renal cell carcinoma, 138582-R-J1 Merkel cell tumor, K60290-347-R-J1 and K57222-313-R-J1-PDC glioblastomas, 653999-131-R-J2-PDC, LG0703-F948-PDC, and 349418-098-R-PDC non-small cell lung carcinomas, 885512-296-R-J2-PDC, 171881-019-R-J1-PDC breast carcinomas and 186277-243-T-J2-PDC and 233499-124-R-J2-PDC colon carcinomas were obtained from the NCI Patient-Derived Models Repository (PDMR, https://pdmr.cancer.gov). The established cell lines NCI/ADR-RES (RRID:CVCL_14520 and OVCAR-5 (RRID:CVCL_1628) ovarian carcinomas, 786-O (RRID:CVCL_1051) and A498 (RRID:CVCL_A498) renal cell carcinoma, NCI-H211 (ATCC, cat. CRL-5824; RRID:CVCL_1529), NCI-H196 (ATCC, cat. CRL-5823, RRID:CVCL_1509), SW 1271 (ATCC, cat. CRL-2177, RRID:CVCL_1716) and NCI-H1876 (ATCC, cat. CRL-5902, RRID:CVCL_1503) small cell lung carcinomas, MDA-MB-231 (RRID:CVCL_0062) and MDA-MB-468 (RRID:CVCL_0419)breast carcinomas (10-12). Pooled donor human umbilical vein endothelial cells (HUVEC, Lonza, cat. CC-2519) and human mesenchymal stem cells (hMSC, Lonza, cat. PT-2501) were purchased from Lonza (Walkersville, MD).
Cell Culture. All cells were maintained in an incubator at 37 degrees C and 5% CO2 with 95% humidity. The PDC lines were cultured according to standard operating procedures established by the NCI PDMR (https://pdmr.cancer.gov). Briefly all PDCs were thawed and cultured in Matrigel-coated flasks prepared with a working solution of 1X Ham's F-12 nutrient mix, without supplementation (Invitrogen, Waltham, MA, cat. 11765054), 100 U/mL penicillin-streptomycin (Invitrogen, cat. 15140122), and 2.5% Matrigel (Corning Inc., Corning, NY, cat. 354248) for the first three passages. […]

Setting [1] is: curve of first compound, second compound 0.1 µM.
The mark [2] stands for this setting: curve of first compound, second compound 0.316 µM.
[3] abbreviates: curve of first compound, second compound 1 µM.
[4] abbreviates: curve of first compound, second compound 3.16 µM.
Setting [5] is: curve of first compound, second compound 10 µM.
Where [6] appears, read: second compound 0.1 µM, first compound 0.0316 µM.
Where [7] appears, read: second compound 0.1 µM, first compound 0.1 µM.
The mark [8] stands for this setting: second compound 0.1 µM, first compound 0.316 µM.
[9] abbreviates: second compound 0.1 µM, first compound 1 µM.
The mark [10] stands for this setting: second compound 0.316 µM, first compound 0.0316 µM.
The mark [11] stands for this setting: second compound 0.316 µM, first compound 0.1 µM.
The mark [12] stands for this setting: second compound 0.316 µM, first compound 0.316 µM.
Setting [13] is: second compound 0.316 µM, first compound 1 µM.
Where [14] appears, read: second compound 1 µM, first compound 0.0316 µM.
Where [15] appears, read: second compound 1 µM, first compound 0.1 µM.
The mark [16] stands for this setting: second compound 1 µM, first compound 0.316 µM.
Where [17] appears, read: second compound 1 µM, first compound 1 µM.
Where [18] appears, read: second compound 3.16 µM, first compound 0.0316 µM.
Where [19] appears, read: second compound 3.16 µM, first compound 0.1 µM.
[20] abbreviates: second compound 3.16 µM, first compound 0.316 µM.
Setting [21] is: second compound 3.16 µM, first compound 1 µM.
[22] abbreviates: second compound 10 µM, first compound 0.0316 µM.
The mark [23] stands for this setting: second compound 10 µM, first compound 0.1 µM.
The mark [24] stands for this setting: second compound 10 µM, first compound 0.316 µM.
The mark [25] stands for this setting: second compound 10 µM, first compound 1 µM.
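Note: spheroids exposed to agents for one week before readout.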

As a reminder, the pIC50 is −log10 of the IC50, conventionally taken in molar units. The term viability, T/C denotes the result in the treated group divided by that in the control group, in per cent. With `O=C(c1cc(Cc2n[nH]c(=O)c3ccccc23)ccc1F)N1CCN(C(=O)C2CC2)CC1` + NC1CC1c1ccc(-c2cccc(O)c2)cc1, the pIC50 by setting is: under setting [1], below 5.00; under setting [2], below 5.00; under setting [3], below 5.00; under setting [4], below 5.00; under setting [5], below 5.00. Further, the viability, T/C under setting [6] is 96.9%; the viability, T/C under setting [7] is 92.2%; the viability, T/C under setting [8] was 98.5%; the viability, T/C under setting [9] was 97.8%; the viability, T/C (second compound 0.1 µM, first compound 3.16 µM) is 100%; the viability, T/C (second compound 0.1 µM, first compound 10 µM) is 73.2%. Besides, the viability, T/C reads like this: under setting [10], 94.2%; under setting [11], 106%; under setting [12], 106%; under setting [13], 87.2%; (second compound 0.316 µM, first compound 3.16 µM) 91.1%; (second compound 0.316 µM, first compound 10 µM) 79.3%. Also, the viability, T/C is, setting by setting: under setting [14], 78.3%; under setting [15], 91.6%; under setting [16], 91.6%; under setting [17], 79%; (second compound 1 µM, first compound 3.16 µM) 73.4%; (second compound 1 µM, first compound 10 µM) 68.5%. Moreover, the viability, T/C runs as follows: under setting [18], 87.6%; under setting [19], 83.4%; under setting [20], 71.6%; under setting [21], 84.6%; (second compound 3.16 µM, first compound 3.16 µM) 66.5%; (second compound 3.16 µM, first compound 10 µM) 63%. The viability, T/C reads like this: under setting [22], 77.6%; under setting [23], 75.1%; under setting [24], 71.9%; under setting [25], 68%; (second compound 10 µM, first compound 3.16 µM) 58.6%; (second compound 10 µM, first compound 10 µM) 62.7%.

Take `CCN(c1cc(-c2ccc(CN3CCOCC3)cc2)cc(C(=O)NCc2c(C)cc(C)[nH]c2=O)c1C)C1CCOCC1`: the viability, T/C runs as follows: (compound 0.00949 µM) 81.1% and 101%; (compound 0.03 µM) 86.2% and 103%; (compound 0.0949 µM) 101% and 96%; (compound 0.3 µM) 103% and 97.8%; (compound 0.949 µM) 110% and 83.4%; (compound 3 µM) 99.1% and 52.7%. Further, for the setting “curve of compound”, the negative logarithm of the IC50 (pIC50) is below 5.52.

Consider `Nc1ccn(C2OC(CO)C(O)C2(F)F)c(=O)n1` (stereo not drawn), for which the viability, T/C reads like this: (compound 0.000949 µM) 69.7% and 82.2%; (compound 0.003 µM) 36.4% and 84.6%; (compound 0.00949 µM) 40.4% and 80.5%; (compound 0.03 µM) 26.6% and 68.5%; (compound 0.0949 µM) 31% and 48.6%; (compound 0.3 µM) 54.3% and 46.2%.

With `Nc1ncn(C2CC(O)C(CO)O2)c(=O)n1` (stereo not drawn) + NC1CC1c1ccc(-c2cccc(O)c2)cc1, the pIC50 under setting [1] is below 6.00; the pIC50 under setting [2] is below 6.00; the pIC50 under setting [3] is below 6.00; the negative logarithm of the IC50 (pIC50) under setting [4] is below 6.00; the negative-log IC50 (pIC50) under setting [5] is below 6.00. For the same molecule, the viability, T/C is 101% (second compound 0.1 µM, first compound 0.00316 µM); 98.9% (second compound 0.1 µM, first compound 0.01 µM); 86.8% under setting [6]; 81.2% under setting [7]; 89.6% under setting [8]; 108% under setting [9]. In addition, the viability, T/C (second compound 0.316 µM, first compound 0.00316 µM) is 120%; the viability, T/C (second compound 0.316 µM, first compound 0.01 µM) was 99.5%; the viability, T/C under setting [10] was 92.2%; the viability, T/C under setting [11] is 75%; the viability, T/C under setting [12] is 96.9%; the viability, T/C under setting [13] is 87.6%. Also, the viability, T/C (second compound 1 µM, first compound 0.00316 µM) is 104%; the viability, T/C (second compound 1 µM, first compound 0.01 µM) was 89.9%; the viability, T/C under setting [14] is 72.9%; the viability, T/C under setting [15] was 83.7%; the viability, T/C under setting [16] is 69.1%; the viability, T/C under setting [17] was 88.4%. In addition, the viability, T/C is 82.5% (second compound 3.16 µM, first compound 0.00316 µM); 93.2% (second compound 3.16 µM, first compound 0.01 µM); 80.4% under setting [18]; 74.4% under setting [19]; 74.6% under setting [20]; 92% under setting [21]. The viability, T/C by setting is: (second compound 10 µM, first compound 0.00316 µM) 80.5%; (second compound 10 µM, first compound 0.01 µM) 83.9%; under setting [22], 80.5%; under setting [23], 60.9%; under setting [24], 58.1%; under setting [25], 90.9%.
